Data on two compounds can be found in BindingDB's records for patent US11739090 (Jumbo Drug Bank, 2023).

For experiment [1], the target named is Tyrosine-protein kinase BTK (Homo sapiens, UniProt Q06187). The experiment in a line: BTK Kinase Assay. How it is done:
(§1) 1. Reaction conditions: buffer conditions: 20 mM HEPES (pH 7.5), 10 mM MgCl2, 1 mM EGTA, 0.02% Brij35, 0.02 mg/mL BSA, 0.1 mm Na3VO4, 2 mm DTT, 1% DMSO.2. Reaction procedure:2.1. Preparing an indicator substrate in a freshly prepared reaction buffer 2.2. Delivering the desired cofactor to the above substrate solution 2.3. Delivering the indicated kinase to the substrate solution and gently mixing same 2.4. Delivering the compounds in DMSO to the kinase reaction mixture using acoustic technology (Echo550) 2.5. Initiating the reaction (final concentration of ATP: 5 μM) by delivering 33P-ATP (final specific activity: 0.01 μci/μL) to the reaction mixture 2.6. Incubating the kinase reaction at room temperature for 120 minutes 2.7. Recording the reaction on P81 ion exchange paper (Whatman #3698-915) 2.8. Washing the filter widely with 0.75% phosphoric acid 2.9. Measuring the radioactive phosphorylated substrate remaining on the filter paper. 3.Data analysis: the kinase activity data is expressed as the percentage of the remaining kinase activity in a test sample compared to a reaction with a carrier (dimethyl sulfoxide), and IC50 values and curve fitting are obtained using Prism4 software (GraphPad).

Experiment [2] addresses Epidermal growth factor receptor (Homo sapiens, UniProt P00533). As to the kind of experiment: EGFR, ITK and TEC Kinase Assay. How it is done:
as §1, with “DMSO. 2.” for “DMSO.2.”, “ATP: 2 μM,” for “ATP:”, “μM and 5 μM respectively)” for “μM)”, “3. Data” for “3.Data”

In experiment [3] the target is T1, Tyrosine-protein kinase ITK/TSK (Homo sapiens, UniProt Q08881).
T1 sequence (Q08881 whole entry): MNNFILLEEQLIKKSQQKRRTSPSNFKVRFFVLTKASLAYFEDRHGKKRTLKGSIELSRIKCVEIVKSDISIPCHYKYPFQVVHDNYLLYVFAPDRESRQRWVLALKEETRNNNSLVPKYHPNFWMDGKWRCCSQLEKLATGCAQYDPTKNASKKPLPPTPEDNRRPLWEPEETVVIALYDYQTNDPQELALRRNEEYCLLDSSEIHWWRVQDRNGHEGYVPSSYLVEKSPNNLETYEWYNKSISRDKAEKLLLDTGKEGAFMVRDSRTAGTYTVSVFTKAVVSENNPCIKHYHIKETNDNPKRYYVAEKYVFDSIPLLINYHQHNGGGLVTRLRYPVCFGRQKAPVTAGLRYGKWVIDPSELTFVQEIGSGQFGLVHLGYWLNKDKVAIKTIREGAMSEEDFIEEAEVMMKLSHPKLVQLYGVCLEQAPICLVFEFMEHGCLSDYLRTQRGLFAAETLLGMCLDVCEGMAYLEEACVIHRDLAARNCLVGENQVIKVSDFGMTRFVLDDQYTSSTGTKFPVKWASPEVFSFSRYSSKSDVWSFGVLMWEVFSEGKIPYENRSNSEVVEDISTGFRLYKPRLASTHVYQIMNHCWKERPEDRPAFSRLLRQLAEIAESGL

The target in experiment [4] is T2, Tyrosine-protein kinase Tec (Homo sapiens, UniProt P42680).
T2 sequence (P42680 whole entry): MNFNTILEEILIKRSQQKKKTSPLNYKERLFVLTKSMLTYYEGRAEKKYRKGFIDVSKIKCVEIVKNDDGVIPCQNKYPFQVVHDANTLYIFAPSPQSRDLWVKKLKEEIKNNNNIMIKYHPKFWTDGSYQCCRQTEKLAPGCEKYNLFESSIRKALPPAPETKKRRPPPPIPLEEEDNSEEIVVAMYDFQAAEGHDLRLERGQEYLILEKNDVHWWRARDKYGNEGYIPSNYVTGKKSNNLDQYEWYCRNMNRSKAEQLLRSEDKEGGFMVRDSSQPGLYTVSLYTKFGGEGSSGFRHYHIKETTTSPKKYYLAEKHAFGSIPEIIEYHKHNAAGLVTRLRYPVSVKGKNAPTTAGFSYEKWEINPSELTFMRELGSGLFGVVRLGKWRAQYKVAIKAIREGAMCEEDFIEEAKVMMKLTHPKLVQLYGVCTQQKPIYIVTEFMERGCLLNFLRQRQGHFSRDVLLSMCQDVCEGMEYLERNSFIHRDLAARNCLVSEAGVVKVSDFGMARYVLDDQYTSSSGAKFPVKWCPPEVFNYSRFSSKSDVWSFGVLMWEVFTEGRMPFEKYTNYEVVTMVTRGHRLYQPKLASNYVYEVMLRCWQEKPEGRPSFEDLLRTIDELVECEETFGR

pIC50: −log10 of the molar value.

Sequence of Epidermal growth factor receptor (P00533 whole entry): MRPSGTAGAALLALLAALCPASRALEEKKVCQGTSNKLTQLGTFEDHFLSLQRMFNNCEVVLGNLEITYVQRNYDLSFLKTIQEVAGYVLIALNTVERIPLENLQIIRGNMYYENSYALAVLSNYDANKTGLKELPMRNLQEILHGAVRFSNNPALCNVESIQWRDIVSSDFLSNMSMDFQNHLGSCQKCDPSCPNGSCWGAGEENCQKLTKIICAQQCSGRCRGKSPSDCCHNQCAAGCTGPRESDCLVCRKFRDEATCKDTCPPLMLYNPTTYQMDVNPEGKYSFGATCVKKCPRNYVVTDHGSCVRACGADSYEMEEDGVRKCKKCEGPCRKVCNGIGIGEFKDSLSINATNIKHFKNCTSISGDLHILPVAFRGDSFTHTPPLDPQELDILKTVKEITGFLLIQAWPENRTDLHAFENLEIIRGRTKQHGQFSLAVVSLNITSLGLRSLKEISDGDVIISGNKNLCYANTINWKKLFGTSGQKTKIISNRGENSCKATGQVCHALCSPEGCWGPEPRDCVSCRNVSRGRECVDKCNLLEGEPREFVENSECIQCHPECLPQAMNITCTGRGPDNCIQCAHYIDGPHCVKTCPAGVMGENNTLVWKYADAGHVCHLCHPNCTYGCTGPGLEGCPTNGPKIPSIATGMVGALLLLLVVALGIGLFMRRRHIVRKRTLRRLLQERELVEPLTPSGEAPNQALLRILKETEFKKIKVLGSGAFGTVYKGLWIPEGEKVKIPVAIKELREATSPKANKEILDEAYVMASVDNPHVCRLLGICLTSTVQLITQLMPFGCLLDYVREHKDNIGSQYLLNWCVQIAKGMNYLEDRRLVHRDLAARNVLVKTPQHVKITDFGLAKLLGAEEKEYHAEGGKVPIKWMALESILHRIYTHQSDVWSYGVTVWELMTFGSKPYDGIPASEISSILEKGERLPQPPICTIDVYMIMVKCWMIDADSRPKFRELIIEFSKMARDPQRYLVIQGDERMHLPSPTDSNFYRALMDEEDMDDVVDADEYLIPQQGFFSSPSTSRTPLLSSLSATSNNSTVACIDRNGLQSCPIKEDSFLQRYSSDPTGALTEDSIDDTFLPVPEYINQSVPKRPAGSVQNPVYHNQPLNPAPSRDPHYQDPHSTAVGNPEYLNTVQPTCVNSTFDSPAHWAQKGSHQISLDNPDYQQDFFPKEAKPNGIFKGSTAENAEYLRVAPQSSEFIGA
Sequence of Tyrosine-protein kinase BTK (Q06187 whole entry): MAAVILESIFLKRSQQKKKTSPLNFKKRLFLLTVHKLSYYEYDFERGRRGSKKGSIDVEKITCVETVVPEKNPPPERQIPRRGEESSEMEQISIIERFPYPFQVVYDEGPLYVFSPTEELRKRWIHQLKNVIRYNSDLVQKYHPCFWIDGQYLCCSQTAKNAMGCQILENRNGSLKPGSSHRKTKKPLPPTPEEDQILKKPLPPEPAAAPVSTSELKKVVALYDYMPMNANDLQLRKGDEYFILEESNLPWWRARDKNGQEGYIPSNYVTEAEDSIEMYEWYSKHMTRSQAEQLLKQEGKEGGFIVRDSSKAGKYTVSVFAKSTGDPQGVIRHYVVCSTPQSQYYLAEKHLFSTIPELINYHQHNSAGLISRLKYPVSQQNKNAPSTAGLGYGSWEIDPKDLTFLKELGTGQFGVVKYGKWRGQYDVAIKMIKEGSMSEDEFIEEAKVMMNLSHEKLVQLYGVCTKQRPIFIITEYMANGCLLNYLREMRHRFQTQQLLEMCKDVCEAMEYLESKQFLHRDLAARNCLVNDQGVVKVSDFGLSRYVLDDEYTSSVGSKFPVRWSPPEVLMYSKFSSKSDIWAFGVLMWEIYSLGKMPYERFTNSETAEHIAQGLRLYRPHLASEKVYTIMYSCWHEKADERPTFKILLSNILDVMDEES

As for `C=CC(=O)N1CCC[C@@H](c2nn(-c3ccc(Oc4ccccc4)cc3)c3c(N)nccc23)C1` [US11739090, Compound 7A], the pIC50 in experiment [1] is 9.14; in experiment [2], 7.84; in experiment [3], 7.37; in experiment [4], 8.47.
In the case of `C=CC(=O)N1CCC[C@H](c2nn(-c3ccc(Oc4ccccc4)cc3)c3c(N)nccc23)C1` [US11739090, Compound 7B], the pIC50 in experiment [1] is 9.03; in experiment [2], 7.48; in experiment [3] it was 5.84; in experiment [4], 8.43.
